How the values were obtained:
Format in all cases: in vivo
[1] = tested on: redroot pigweed (Amaranthus retroflexus, AMARE); experiment: Pre-emerge test, greenhouse herbicide activity screening; conditions: pre-emerge, rated 14 days after application, 0 = no damage, 100 = complete death
Method in brief: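 Plants grown in 10 cm pots of sandy loam mix received acetone-dissolved compounds through a moving flat-fan nozzle. Doses ranged from 15 to 1000 g ai/ha. Pre-emerge pots were seeded one day earlier, post-emerge pots 8–21 days earlier. Fourteen days on, each pot was graded 0–100 for damage.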

[2] = tested on: barnyardgrass (Echinochloa crus-galli, ECHCG); experiment: as above; conditions: pre-emerge, rated 14 days after application, 0 = no damage, 100 = complete death
Method in brief: (§1)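 Fourteen days after spraying, crop and weed injury was graded visually from 0, no effect, to 100, every plant dead. Test substances were dissolved in acetone and applied at 15–1000 g ai/ha with a flat-fan nozzle. Application was either pre-emergence, one day after sowing, or post-emergence at the 2–3 leaf stage.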

[3] = tested on: green foxtail (Setaria viridis, SETVI); experiment: as above; conditions: pre-emerge, rated 14 days after application, 0 = no damage, 100 = complete death
Method in brief: as §1

[4] = tested on: ivyleaf morningglory (Ipomoea hederacea, IPOHE); experiment: as above; conditions: pre-emerge, rated 14 days after application, 0 = no damage, 100 = complete death
Method in brief: as §1

[5] = tested on: johnsongrass (Sorghum halepense, SORHA); experiment: as above; conditions: pre-emerge, rated 14 days after application, 0 = no damage, 100 = complete death
Method in brief: as §1

[6] = tested on: lambsquarters (Chenopodium album, CHEAL); experiment: as above; conditions: pre-emerge, rated 14 days after application, 0 = no damage, 100 = complete death
Method in brief: as §1

[7] = tested on: large crabgrass (Digitaria sanguinalis, DIGSA); experiment: as above; conditions: pre-emerge, rated 14 days after application, 0 = no damage, 100 = complete death
Method in brief: as §1

[8] = tested on: sicklepod (Cassia obtusifolia, CASOB); experiment: as above; conditions: pre-emerge, rated 14 days after application, 0 = no damage, 100 = complete death
Method in brief: as §1

[9] = tested on: velvetleaf (Abutilon theophrasti, ABUTH); experiment: as above; conditions: pre-emerge, rated 14 days after application, 0 = no damage, 100 = complete death
Method in brief: as §1

[10] = tested on: field corn (Zea mays L., var. Dekalb 535, CORN); experiment: Pre-emerge test, crop safety; conditions: pre-emerge, rated 14 days after application, 0 = no damage, 100 = complete death
Method in brief: (§2)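 Compounds in acetone were track-sprayed at 187 l/ha, 15–1000 g ai/ha, onto sandy loam pots. Pre-emerge seeds were sown one day before spraying, with surface watering afterwards. Post-emerge plants were at the 2–3 leaf stage and sprayed with 0.25% v/v non-ionic surfactant. Injury was rated 0–100 at 14 days.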

[11] = tested on: upland rice (Oryza sp., var. Tebonnet, RICE); experiment: Pre-emerge test, crop safety; conditions: pre-emerge, rated 14 days after application, 0 = no damage, 100 = complete death
Method in brief: as §2

[12] = tested on: barnyardgrass (Echinochloa crus-galli, ECHCG); experiment: Post-emerge test, greenhouse herbicide activity screening; conditions: phytotoxicity rating 0-100 (0 no damage, 100 complete death), 14 days after application
Method in brief: (§3)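 Each test used a mechanized track sprayer delivering 187 l/ha of acetone solution at 15–1000 g ai/ha. Post-emerge foliage at 2–3 leaves was treated with added 0.25% v/v non-ionic surfactant and bottom-watered only. Injury was assessed on day 14, where 100 means total kill.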

[13] = tested on: common ragweed (Ambrosia artemisizfolia L., AMBEL); experiment: as above; conditions: phytotoxicity rating 0-100 (0 no damage, 100 complete death), 14 days after application
Method in brief: as §3

[14] = tested on: green foxtail (Setaria viridis, SETVI); experiment: as above; conditions: phytotoxicity rating 0-100 (0 no damage, 100 complete death), 14 days after application
Method in brief: as §3

[15] = tested on: ivyleaf morningglory (Ipomoea hederacea, IPOHE); experiment: as above; conditions: phytotoxicity rating 0-100 (0 no damage, 100 complete death), 14 days after application
Method in brief: as §3

[16] = tested on: johnsongrass (Sorghum halepense, SORHA); experiment: as above; conditions: phytotoxicity rating 0-100 (0 no damage, 100 complete death), 14 days after application
Method in brief: as §3

[17] = tested on: lambsquarters (Chenopodium album, CHEAL); experiment: as above; conditions: phytotoxicity rating 0-100 (0 no damage, 100 complete death), 14 days after application
Method in brief: as §3

[18] = tested on: large crabgrass (Digitaria sanguinalis, DIGSA); experiment: as above; conditions: phytotoxicity rating 0-100 (0 no damage, 100 complete death), 14 days after application
Method in brief: as §3

[19] = tested on: redroot pigweed (Amaranthus retroflexus, AMARE); experiment: as above; conditions: phytotoxicity rating 0-100 (0 no damage, 100 complete death), 14 days after application
Method in brief: as §3

[20] = tested on: sicklepod (Cassia obtusifolia, CASOB); experiment: as above; conditions: phytotoxicity rating 0-100 (0 no damage, 100 complete death), 14 days after application
Method in brief: as §3

[21] = tested on: velvetleaf (Abutilon theophrasti, ABUTH); experiment: as above; conditions: phytotoxicity rating 0-100 (0 no damage, 100 complete death), 14 days after application
Method in brief: as §3

[22] = tested on: field corn (Zea mays L., var. Dekalb 535, CORN); experiment: Post-emerge test, crop safety; conditions: phytotoxicity rating 0-100 (0 no damage, 100 complete death), 14 days after application
Method in brief: as §1

[23] = tested on: upland rice (Oryza sp., var. Tebonnet, RICE); experiment: Post-emerge test, crop safety; conditions: phytotoxicity rating 0-100 (0 no damage, 100 complete death), 14 days after application
Method in brief: as §1

## COc1c(Cl)cc(F)c(-n2c(=O)cc(C(F)(F)F)n(C)c2=O)c1N=CN(C)C [Compound 1-31, 3-[4-chloro-2-(dimethylaminomethynyl)imino-6-fluoro-3-methoxyphenyl]-1-methyl-6-trifluoromethyl-2,4(1H, 3H)-pyrimidinedione]
[1]; 63 g ai/ha
  Pre-emerge Herbicidal Activity AMARE (phytotoxicity rating, scale 0-100): 80
[1]; 250 g ai/ha
  Pre-emerge Herbicidal Activity AMARE (phytotoxicity rating, scale 0-100): 100
[2]; 63 g ai/ha
  Pre-emerge Herbicidal Activity ECHCG (phytotoxicity rating, scale 0-100): 0
[2]; 250 g ai/ha
  Pre-emerge Herbicidal Activity ECHCG (phytotoxicity rating, scale 0-100): 40
[3]; 63 g ai/ha
  Pre-emerge Herbicidal Activity SETVI (phytotoxicity rating, scale 0-100): 50
[3]; 250 g ai/ha
  Pre-emerge Herbicidal Activity SETVI (phytotoxicity rating, scale 0-100): 100
[4]; 63 g ai/ha
  Pre-emerge Herbicidal Activity IPOHE (phytotoxicity rating, scale 0-100): 0
[4]; 250 g ai/ha
  Pre-emerge Herbicidal Activity IPOHE (phytotoxicity rating, scale 0-100): 80
[5]; 63 g ai/ha
  Pre-emerge Herbicidal Activity SORHA (phytotoxicity rating, scale 0-100): 0
[5]; 250 g ai/ha
  Pre-emerge Herbicidal Activity SORHA (phytotoxicity rating, scale 0-100): 90
[6]; 63 g ai/ha
  Pre-emerge Herbicidal Activity CHEAL (phytotoxicity rating, scale 0-100): 95
[6]; 250 g ai/ha
  Pre-emerge Herbicidal Activity CHEAL (phytotoxicity rating, scale 0-100): 100
[7]; 63 g ai/ha
  Pre-emerge Herbicidal Activity DIGSA (phytotoxicity rating, scale 0-100): 0
[7]; 250 g ai/ha
  Pre-emerge Herbicidal Activity DIGSA (phytotoxicity rating, scale 0-100): 90
[8]; 63 g ai/ha
  Pre-emerge Herbicidal Activity CASOB (phytotoxicity rating, scale 0-100): 70
[8]; 250 g ai/ha
  Pre-emerge Herbicidal Activity CASOB (phytotoxicity rating, scale 0-100): 95
[9]; 63 g ai/ha
  Pre-emerge Herbicidal Activity ABUTH (phytotoxicity rating, scale 0-100): 100
[9]; 250 g ai/ha
  Pre-emerge Herbicidal Activity ABUTH (phytotoxicity rating, scale 0-100): 100
[10]; 63 g ai/ha
  Pre-emerge crop damage CORN (phytotoxicity rating, scale 0-100): 0
[10]; 250 g ai/ha
  Pre-emerge crop damage CORN (phytotoxicity rating, scale 0-100): 50
[11]; 63 g ai/ha
  Pre-emerge crop damage RICE (phytotoxicity rating, scale 0-100): 0
[11]; 250 g ai/ha
  Pre-emerge crop damage RICE (phytotoxicity rating, scale 0-100): 10
[12]; 63 g ai/ha
  Post-emerge Herbicidal Activity ECHCG: 0
[12]; 250 g ai/ha
  Post-emerge Herbicidal Activity ECHCG: 0
[13]; 63 g ai/ha
  Post-emerge Herbicidal Activity AMBEL: 0
[13]; 250 g ai/ha
  Post-emerge Herbicidal Activity AMBEL: 0
[14]; 63 g ai/ha
  Post-emerge Herbicidal Activity SETVI: 0
[14]; 250 g ai/ha
  Post-emerge Herbicidal Activity SETVI: 0
[15]; 63 g ai/ha
  Post-emerge Herbicidal Activity IPOHE: 10
[15]; 250 g ai/ha
  Post-emerge Herbicidal Activity IPOHE: 50
[16]; 63 g ai/ha
  Post-emerge Herbicidal Activity SORHA: 0
[16]; 250 g ai/ha
  Post-emerge Herbicidal Activity SORHA: 0
[17]; 63 g ai/ha
  Post-emerge Herbicidal Activity CHEAL: 0
[17]; 250 g ai/ha
  Post-emerge Herbicidal Activity CHEAL: 40
[18]; 63 g ai/ha
  Post-emerge Herbicidal Activity DIGSA: 0
[18]; 250 g ai/ha
  Post-emerge Herbicidal Activity DIGSA: 0
[19]; 63 g ai/ha
  Post-emerge Herbicidal Activity AMARE: 10
[19]; 250 g ai/ha
  Post-emerge Herbicidal Activity AMARE: 30
[20]; 63 g ai/ha
  Post-emerge Herbicidal Activity CASOB: 0
[20]; 250 g ai/ha
  Post-emerge Herbicidal Activity CASOB: 0
[21]; 63 g ai/ha
  Post-emerge Herbicidal Activity ABUTH: 20
[21]; 250 g ai/ha
  Post-emerge Herbicidal Activity ABUTH: 50
[22]; 63 g ai/ha
  Post-emerge Herbicidal Activity CORN (crop damage): 0
[22]; 250 g ai/ha
  Post-emerge Herbicidal Activity CORN (crop damage): 0
[23]; 63 g ai/ha
  Post-emerge Herbicidal Activity RICE (crop damage): 0
[23]; 250 g ai/ha
  Post-emerge Herbicidal Activity RICE (crop damage): 10

From US6355799B1, “Substituted benzene compounds, process for their preparation, and herbicidal and defoliant compositions containing them” (ISK Americas Incorporated, priority 1997, dated 2002)
